Data published in US10610522B2, “Methods for retreating irritable bowel syndrome (IBS)” (Salix Pharmaceuticals, Inc., priority 2014, dated 2020).
“And” between values parts separate entries of the source, which are not always exact repeats. Equal entries are not always repeated.

Experiments:
[1] = test system: non-constipation IBS; experiment: Study 2 (TARGET 2): rifaximin 550 mg TID 14 days vs placebo in non-C IBS, 10-week follow-up; type: in vivo, human; conditions: at least 2 weeks during PEP
[2] = test system: non-constipation IBS; experiment: Study 1 (TARGET 1): rifaximin 550 mg TID 14 days vs placebo in non-C IBS, 10-week follow-up; type: in vivo, human
Excerpt: A measure of efficacy is based on subjects' answers to the Weekly Subject Global Assessment (SGA) questions over the study duration in relation to their IBS symptoms.
Additionally subjects having a stool consistency score of <4 and at least a 1 point reduction in average daily IBS score were identified. […]
In TARGET 1 and 2, the primary endpoint was the proportion of patients who achieved adequate relief of IBS symptoms for at least 2 of 4 weeks during the month following 14 days of treatment. Adequate relief was defined as a response of “yes” to the following weekly Subject Global Assessment (SGA) question: “In regards to your IBS symptoms, compared to the way you felt before you started study medication, have you, in the past 7 days, had adequate relief of your IBS symptoms? [Yes/No]”
The key secondary endpoint was the proportion of patients who achieved adequate relief of IBS-related bloating for at least 2 of 4 weeks during the month following 2 weeks of treatment. Adequate relief of IBS-related bloating was defined as a response of “yes” to the following weekly (every 7 days) SGA question: “In regards to your IBS symptom of bloating, compared to the way you felt before you started study medication, have you, in the past 7 days, had adequate relief of your IBS symptom of bloating?
The trials examined a composite endpoint which defined responders by IBS-related abdominal pain and stool consistency measures. Patients were responders if they experienced a ≥30% decrease from baseline in abdominal pain for ≥2 weeks during the month following 2 weeks of treatment. […] Patients were monthly responders if they met criteria for BOTH abdominal pain and stool consistency ≥2 weeks per month. […] (See Table 60.)

[3] = test system: IBS-D; experiment: TARGET 3: repeat treatment with rifaximin 550 mg TID in IBS-D (open-label, double-blind first and second repeat treatment); type: in vivo, human
Excerpt: This study consists of several treatment phases, and is initiated with a placebo run-in treatment during the Screening/Treatment 1 Phase. The placebo run-in is included in the design to disqualify subjects from enrollment if they no longer meet IBS symptom related entry criteria at the end of the Screening/Treatment 1 Phase (e.g., spontaneous improvement). […] Subjects who achieve treatment success in both IBS-related abdominal pain and stool consistency during at least two of the four week follow-up period are classified as responders and enter a treatment free Maintenance Phase 1. Non-responders are withdrawn from the study to provide an enriched population of subjects who respond to treatment with rifaximin. The treatment free Maintenance Phase 1 is variable in time (up to 18 weeks in total) and depends upon recurrence (e.g., absence of treatment success in both IBS related abdominal pain or stool consistency).
The subjects remain blinded to placebo received during Treatment 1. Subjects with recurrence enter the DBR Treatment 3 Phase.
Subjects are considered to have met recurrence criteria or have “relapsed” when they experience the recurrence of abdominal pain OR stool consistency for at least 3 weeks during a 4-week follow-up period. […] Therefore a recurrence of both symptoms is not required to define a “relapse”.
The study was a multi-center, randomized, double-blind, placebo-controlled trial in adult subjects with non-C IBS. The study duration was up to 51 weeks, with approximately 600 patients.
The Treatment 1 or Screening phase is the 7-13 days prior to study Day 1.
The proportion of subjects who were responders to repeat treatment in both IBS-related abdominal pain and stool consistency were evaluated during the 4 week treatment-free follow-up (Primary Evaluation Period, PEP) in the DBR (Double Blind Repeat) of the Treatment 3 Phase.
In this analysis, when a weekly response was absent for either the abdominal pain or stool consistency component for at least 3 weeks during a rolling consecutive 4-week assessment period; the subject is considered to have recurrence.
Further, the proportion of subjects who were responders to repeat treatment in both IBS-related abdominal pain and stool consistency during the PEP in the DBR Treatment 3 Phase and that had no recurrence through the end of Maintenance Phase 2 were assessed.
Further, the proportion of subjects were assessed who were responders to repeat treatment for IBS-related bloating during the PEP in the DBR Treatment 3 Phase.
The intent-to-treat (ITT) population included subjects who were randomized and received at least one dose of the study drug in the Treatment 3/DBR Treatment Phase. These subjects served as the primary analysis population. An efficacy analysis was conducted on the ITT population.
Double-Blind Phase of the Study (Response type—durable and maintained): Proportion that responded to the composite FDA Endpoint of relief in both IBS-related Abdominal Pain AND Stool Consistency during the PEP in the first repeat double-blind, placebo controlled treatment phase AND continued to respond without recurrence through the end of Week 6 following the second repeat double-blind, placebo controlled treatment.
Double-Blind Repeat Treatment and follow-up (Response type—durable): Proportion that responded to the composite FDA Endpoint of relief in both IBS-related Abdominal Pain AND Stool Consistency during the PEP in the first repeat double-blind, placebo controlled treatment phase AND continued to respond without recurrence through the end of Week 12, independent of any additional treatment.
At the end of Week 6, patients were assessed for response to treatment. […]

[4] = target: cytochrome P450 2C9 (Homo sapiens, UniProt P11712); experiment: In vitro cytochrome P450 inhibition; type: biochemical; conditions: 2 to 200 ng/mL
Chain of cytochrome P450 2C9 (P11712 whole entry): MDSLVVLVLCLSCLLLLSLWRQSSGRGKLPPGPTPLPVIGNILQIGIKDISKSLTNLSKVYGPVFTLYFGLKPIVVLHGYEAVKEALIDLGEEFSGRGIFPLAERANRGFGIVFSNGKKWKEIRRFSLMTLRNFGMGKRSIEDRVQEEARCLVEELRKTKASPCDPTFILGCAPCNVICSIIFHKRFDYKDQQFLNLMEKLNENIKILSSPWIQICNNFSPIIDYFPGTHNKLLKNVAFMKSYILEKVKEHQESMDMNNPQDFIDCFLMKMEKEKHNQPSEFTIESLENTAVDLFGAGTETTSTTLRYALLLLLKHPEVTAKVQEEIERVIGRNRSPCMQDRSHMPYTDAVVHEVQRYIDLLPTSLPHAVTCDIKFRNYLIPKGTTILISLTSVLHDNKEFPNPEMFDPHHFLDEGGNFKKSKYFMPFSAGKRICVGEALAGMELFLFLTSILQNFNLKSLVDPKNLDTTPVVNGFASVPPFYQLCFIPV

[5] = Study 1, at least 2 weeks during PEP
[6] = TARGET 1, month following two weeks of treatment, 550 mg TID, N = 309
[7] = TARGET 3, month following repeat treatment, Worst-Case Analysis, 550 mg TID, N = 328

SMILES: CO[C@H]1/C=C/O[C@@]2(C)Oc3c(C)c(O)c4c(O)c(c5c(nc6cc(C)ccn65)c4c3C2=O)NC(=O)/C(C)=C\C=C\[C@H](C)[C@H](O)[C@@H](C)[C@@H](O)[C@@H](C)[C@H](OC(C)=O)[C@@H]1C [Rifaximin, (2S,16Z,18E,20S,21S,22R,23R,24R,25S,26S,27S,28E)-5,6,21,23,25 Pentahydroxy-27-methoxy-2,4,11,16,20,22,24,26-octamethyl-2,7-(epoxypentadeca-(1,11,13)trienimino) benzofuro (4,5-e) pyrido(1,2-a) benzimidazole-1,15(2H)-dione,25-acetate]
- Severe TEAEs, SAEs, deaths (overall in the study): no severe TEAEs, SAEs, or deaths
- Subjects with a TEAE (rifaximin treatment period (7 subjects)): 25%
- Responders: abdominal pain reduction of 1 point in weekly median [1]: 62%
- Responders: abdominal pain reduction of 2 point in mean [1]: 25%
- Responders: overall reduction of median weekly abdominal pain by >= 75% [1]: 20%
- IBS symptom of bloating: adequate relief at least 2 out of 4 weeks during weeks 3 through 6 (weekly question) ([2]; Study 1 / TARGET 1): 40%
- Global IBS symptoms: adequate relief at least 2 out of 4 weeks during weeks 3 through 6 (weekly question) ([2]; Study 1 / TARGET 1, 550 mg TID 14 d): 41% and 31% vs 41%
- Responders: abdominal pain reduction of 1 point in weekly mean [2, 5]: 52%
- Responders: abdominal pain reduction of 1 point in weekly median [2, 5]: 63%
- Responders: abdominal pain reduction of 2 point in mean [2, 5]: 26%
- Responders: abdominal pain reduction of 2 point in median [2, 5]: 37%
- Responders: abdominal pain reduction of 3 point in mean [2, 5]: 6% vs 7%
- Responders: abdominal pain reduction of 3 point in median [2, 5]: 22%
- Responders: daily abdominal pain < 2 for at least 50% of days in a week [2, 5]: 40%
- Responders: overall reduction of mean weekly abdominal pain by >= 25% [2, 5]: 56%
- Responders: overall reduction of mean weekly abdominal pain by >= 50% [2, 5]: 36%
- Responders: overall reduction of mean weekly abdominal pain by >= 75% [2, 5]: 14%
- Responders: overall reduction of median weekly abdominal pain by >= 25% [2, 5]: 63%
- Responders: overall reduction of median weekly abdominal pain by >= 50% [2, 5]: 44%
- Responders: overall reduction of median weekly abdominal pain by >= 75% [2, 5]: 23%
- Abdominal Pain Responders: % [2, 6]: 51%
- Abdominal Pain Responders: n [2, 6]: 159
- Abdominal Pain and Stool Consistency Responders: % [2, 6]: 47%
- Abdominal Pain and Stool Consistency Responders: n [2, 6]: 144
- Adequate Relief of IBS Symptoms: % [2, 6]: 41%
- Adequate Relief of IBS Symptoms: n [2, 6]: 126
- Adequate Relief of IBS-Related Bloating: % [2, 6]: 40%
- Adequate Relief of IBS-Related Bloating: n [2, 6]: 122
- Stool Consistency Responders: % [2, 6]: 79%
- Stool Consistency Responders: n [2, 6]: 244
- Monthly responders for abdominal pain (≥30% decrease) and stool consistency (score <4) ([2]; TARGET 1, ≥2 weeks in month following 2 weeks of treatment): 47%
- Median time to recurrence of IBS-related symptoms after initial 14-day treatment ([3]; TARGET 3): 8 weeks
- Patients who responded to initial open-label treatment (abdominal pain and/or stool consistency) ([3]; TARGET 3, 550 mg TID 14 d, 1074 of 2579 patients): 41.6%
- Monthly responders for abdominal pain and stool consistency after first repeat treatment ([3]; TARGET 3, 4 weeks following first repeat treatment, 550 mg TID): 33%
- Abdominal Pain Responders: % [3, 7]: (51) %
- Abdominal Pain Responders: n [3, 7]: 166
- Abdominal Pain and Stool Consistency Responders: % [3, 7]: (33) %
- Abdominal Pain and Stool Consistency Responders: n [3, 7]: 107
- Stool Consistency Responders: % [3, 7]: (42) %
- Stool Consistency Responders: n [3, 7]: 138
- Sustained response for abdominal pain and stool consistency ([3]; TARGET 3, no recurrence 10 weeks after repeat treatment): 17%
- Prevention of recurrence of abdominal pain and stool consistency responders ([3]; TARGET 3, no recurrence through second repeat treatment phase (20 weeks)): 13%
- Responders without recurrence of abdominal pain or stool consistency symptoms for 22 weeks following initial treatment ([3]; TARGET 3, number of patients): 382
- IBS-Related Abdominal Pain Responders ([3]; Weeks 3 through 6, Second Repeat Treatment Phase, LOCF Analysis): (52.5%)
- IBS-Related Abdominal Pain and Stool Consistency Responders ([3]; Weeks 3 to 6, Double Blind First Repeat Treatment Phase, LOCF Analysis, ITT): 116/328
- Adverse reaction: ALT increased ([3]; during repeat treatment): 2%
- Adverse reaction: nausea ([3]; during repeat treatment): 2%
- Adverse event rate of repeat treatments ([3]; repeat treatments 550 mg TID): generally below that of placebo
- Effects on pathogen emergence, pathogen susceptibility, microbial population in stool or skin swab samples ([3]; up to 3 treatment cycles): no evidence of significant effects
- Inhibition of cytochrome P450 2C9 [4]: does not inhibit
